Source: patent publication US20250101488A1, “RAPID DIAGNOSTIC DRY REAGENT TEST FOR ANTIBIOTIC RESISTANCE, AND METHODS OF USE AND METHODS OF MAKING THEREOF” (BioAmp Diagnostics, Inc., priority 2022, published 2025)
Entries after “also recorded” stand apart in the source; their conditions may differ. Where two headings read alike, the source gives them in different places.

Key:
[1] = Aqueous stability: non-selective hydrolysis of the probe, k(hydro); format: physicochemical; conditions: for Stability k(hydro): rate of non-selective hydrolysis of the probe and turn on of the DETECT system in the absence of its biomarker target
Method: In order to find use in rapid diagnostic tests, ESBL-targeting probes that had at least the following favorable criteria were evaluated: • 1. Aqueous stability—measured through non-selective hydrolysis • a. Favorable criteria: k(hydro)<0.0062 mM/min • 2. Activity towards target β-lactamase target CTX-M-15—measured using recombinant β-lactamase • a. Favorable criteria: k(β-lactamase)>0.0568 mM/min • 3. Activity towards off-target lower generation β-lactamase (prioritizing the most common, TEM-1b) • a. Favorable criteria: k(TEM-1b)<0.02135 mM/min

[2] = test system: cefotaxime (CTX) non-susceptible Gram-negative bacteria (GNB); assay: DETECT assay with 96-bacterial isolate panel, ROC curve analysis against cefotaxime (CTX) phenotype; format: cell-based; conditions: 2.5×10^6 CFU/mL, DETECT score A405 nm 30 min minus 0 min; for Sensitivity (ROC Curve Analyzed with CTX): 96-bacterial isolate panel (47 CTX susceptible, 49 CTX non-susceptible); for AUC (95% CI) (ROC Curve Analyzed with CTX) / Specificity (ROC Curve Analyzed with CTX): 96-bacterial isolate panel
Text: A pool of 5 probe hits were each evaluated using a 96-bacterial isolate panel. In these studies, the 96-bacterial isolate panel was comprised of 47 cefotaxime (CTX) susceptible and 49 CTX non-susceptible, Gram-negative bacteria (GNB). As described above, CTX is a surrogate to detect ceftriaxone susceptibility and, therefore, was applied as the reference phenotype to group true positive, CTX-non-susceptible (include both CTX resistant and intermediate), and true negative, CTX-susceptible. Whole cell suspensions were prepared to yield an experimental concentration of 2.5×10^6 CFU/mL. In a 96-well plate, wells were prepared with all DETECT reagents, except for the targeting probe under investigation. Bacterial suspensions were transferred to the prepared wells of the plate and an initial timepoint was recorded (0 minutes) upon addition of a stock solution of a given probe (Sub-1, (7R)-7-(2-(1H-tetrazol-1-yl)acetamido)-8-oxo-3-((phenylthio)methyl)-5-thia-1-azabicyclo[4.2.0]oct-2-ene-2-carboxylic acid (BAD-5835), (7R)-7-(3-methylisoxazole-5-carboxamido)-8-oxo-3-((phenylthio)methyl)-5-thia-1-azabicyclo[4.2.0]oct-2-ene-2-carboxylic acid (BAD-1468), (7R)-8-oxo-3-((phenylthio)methyl)-7-(2-(pyridin-3-yl)acetamido)-5-thia-1-azabicyclo[4.2.0]oct-2-ene-2-carboxylic acid (BAD-5627), and (7R)-8-oxo-3-((phenylthio)methyl)-7-((S)-piperidine-3-carboxamido)-5-thia-1-azabicyclo[4.2.0]oct-2-ene-2-carboxylic acid (BAD-3462), (7R)-8-oxo-7-(2-phenoxyacetamido)-3-((phenylthio)methyl)-5-thia-1-azabicyclo[4.2.0]oct-2-ene-2-carboxylic acid (BAD-7465)). The absorbance of the wells was collected at 405 nm at 0 and 30 minutes, using a simple benchtop plate reader. The “DETECT Score” values were then calculated for each sample by subtracting the 405 nm absorbance recorded at the 0-minute timepoint from the 30-minute timepoint. Therefore, each sample was identified to have a unique DETECT score that was then can be group into positive and negative phenotype subgroups for threshold value determination via ROC curve analysis.

papain = target: T1, papain (Carica papaya, UniProt P00784); assay: Dry reagent test strip, Study 1: papain activation by cysteine, reflectance; conditions: coating and drying at 37° C.; judged by reflectance of control strip
T1 sequence (P00784 134-345): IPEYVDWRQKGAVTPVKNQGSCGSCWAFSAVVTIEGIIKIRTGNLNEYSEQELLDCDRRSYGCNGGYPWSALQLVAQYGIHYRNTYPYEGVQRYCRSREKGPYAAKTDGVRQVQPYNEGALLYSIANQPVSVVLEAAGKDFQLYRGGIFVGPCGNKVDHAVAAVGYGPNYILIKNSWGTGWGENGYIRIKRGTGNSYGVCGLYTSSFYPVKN
Method: The second coating consisted of adding the water-soluble components (buffer salts and papain) and dried a second time in the oven at 37° C. […] Multiple formulation combinations of the DETECT components were examined to determine optimal change of reflectance over time.
Excess solution is removed with glass rods and the paper placed in the oven and dried for 60 minutes at 37° C. In a dry room (relative humidity<20%), the dried filter paper is adhered onto a polyester film support. […] The order of applying the DETECT components typically includes adding the methanol soluble components first followed by the water-soluble components.
Papain activity by cysteine activation was assessed by using two test strips where one received 100 μM cysteine (sample) while the other received buffer (control).
In study 1, different formulations (i.e., different amounts of the papain and BAPA) were used to prepare strips to obtain the highest possible reflectance change when the yellow-colored signal is generated from activating papain (se FIG. 8) and measured with a Konica Minolta reflectance spectrophotometer. […]
Study 1. […] The difference of percent reflectance (% Rscore) between sample and control is determined by subtracting the percent reflectance of the control strip from the sample strip for each time point to yield an increasing % Rscore over time (see FIG. 9A-B).

recombinant CTX-M-15 = recombinant CTX-M-15 (Escherichia coli, UniProt Q9EXV5); assay: Dry reagent test strip, Study 2: activation by recombinant CTX-M-15, reflectance; conditions: 1 or 4 nM CTX-M-15, read every 4 minutes for 20 minutes
recombinant CTX-M-15, sequence (Q9EXV5 entry or part of it): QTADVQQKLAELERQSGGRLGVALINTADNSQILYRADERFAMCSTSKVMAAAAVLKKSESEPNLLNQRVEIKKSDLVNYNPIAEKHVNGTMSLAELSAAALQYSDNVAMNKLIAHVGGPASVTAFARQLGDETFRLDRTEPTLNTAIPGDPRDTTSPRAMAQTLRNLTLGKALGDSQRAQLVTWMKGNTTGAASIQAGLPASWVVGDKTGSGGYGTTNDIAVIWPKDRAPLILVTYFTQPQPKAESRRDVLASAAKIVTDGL
Method: If the small molecule targeting probe was not severely affected by the fabrication process, then in the presence of CTX-M-15, it will be hydrolyzed and liberate the triggering unit to initiate the signaling cascade thus providing the yellow colorimetric response.
The sample test strip received 1 or 4 nM of β-lactamase, while the control received buffer and the reflectance was monitored every 4 minutes for 20 minutes (see FIG. 8B).

[3] = cited from earlier work

Row | SMILES | Stability k(hydro) [1] [M/min] | Sensitivity (ROC Curve Analyzed with CTX) [2] | AUC (95% CI) (ROC Curve Analyzed with CTX) [2] | Specificity (ROC Curve Analyzed with CTX) [2] | stability of the probe to the test strip fabrication process (papain) | detection of recombinant CTX-M-15 on test strip (change in reflectance) (recombinant CTX-M-15) | extinction coefficient ([3]; absorbance wavelength of 405 nm) | extinction coefficient ([3]; absorbance wavelength of 570 nm) | fluorescent quantum yield (ϕ) ([3]; in water) | stability and promiscuity characteristics for rapidly detecting ceftriaxone non-susceptibility directly from urine [1]
1 | Cc1cc(C(=O)N[C@@H]2C(=O)N3C(C(=O)O)=C(CSc4ccccc4)CSC23)on1 (stereo partly drawn) [BAD-1468, (7R)-7-(3-methylisoxazole-5-carboxamido)-8-oxo-3-((phenylthio)methyl)-5-thia-1-azabicyclo[4.2.0]oct-2-ene-2-carboxylic acid] | 0.00198 | 0.8406 | 0.8846 | 0.8519 | – | – | – | – | – | –
2 | O=C(Cn1cnnn1)N[C@@H]1C(=O)N2C(C(=O)O)=C(CSc3ccccc3)CSC12 (stereo partly drawn) [BAD-5835, (7R)-7-(2-(1H-tetrazol-1-yl)acetamido)-8-oxo-3-((phenylthio)methyl)-5-thia-1-azabicyclo[4.2.0]oct-2-ene-2-carboxylic acid] | 0.0044 | 0.8823 | 0.9586 | 0.9259 | did NOT decompose; also recorded: did not show any sign of degradation | retained its ability to detect the presence of CTX-M-15; also recorded: significant change in reflectance | – | – | – | –
3 | O=C(COc1ccccc1)N[C@@H]1C(=O)N2C(C(=O)O)=C(CSc3ccccc3)CSC12 (stereo partly drawn) [BAD-7465, (7R)-8-oxo-7-(2-phenoxyacetamido)-3-((phenylthio)methyl)-5-thia-1-azabicyclo[4.2.0]oct-2-ene-2-carboxylic acid] | 0.00161 | 0.7143 | 0.7717 | 0.8077 | – | – | – | – | – | –
4 | Nc1ccc([N+](=O)[O-])cc1 [p-nitroaniline] | – | – | – | – | – | – | 9,767 M-1 cm^−1 | – | – | –
5 | O=C(Cc1cccnc1)N[C@@H]1C(=O)N2C(C(=O)O)=C(CSc3ccccc3)CSC12 (stereo partly drawn) [BAD-5627, (7R)-8-oxo-3-((phenylthio)methyl)-7-(2-(pyridin-3-yl)acetamido)-5-thia-1-azabicyclo[4.2.0]oct-2-ene-2-carboxylic acid] | 0.00352 | 0.9275 | 0.9614 | 0.9259 | – | – | – | – | – | –
6 | O=c1ccc2nc3ccc(O)cc3oc-2c1 [resorufin] | – | – | – | – | – | – | – | 56,000 M^1 cm^−1 | 0.74 | –
7 | O=C(O)C1=C(CSc2ccccc2)CSC2[C@H](NC(=O)[C@H]3CCCNC3)C(=O)N12 (stereo partly drawn) [BAD-3462, (7R)-8-oxo-3-((phenylthio)methyl)-7-((S)-piperidine-3-carboxamido)-5-thia-1-azabicyclo[4.2.0]oct-2-ene-2-carboxylic acid] | 0.00558 | 0.8116 | 0.8717 | 0.8519 | – | – | – | – | – | –
8 | O=C(Cc1ccccc1)N[C@@H]1C(=O)N2C(C(=O)O)=C(CSc3ccccc3)CSC12 (stereo partly drawn) [Sub-1, (7R)-8-oxo-7-(2-phenylacetamido)-3-((phenylthio)methyl)-5-thia-1-azabicyclo[4.2.0]oct-2-ene-2-carboxylic acid, reference compound] | 0.0062 | 0.9206 | 0.7717 | 0.8125 | – | – | – | – | – | not adequate
